For assay [1], the system named is A-375. The assay is described as follows: Effect on alive human A-375 cell death treated with DMSO(control) at a concentration of 40 uM. Format: functional.
The subject of assay [2] is A-375. The assay is described as follows: Effect on alive human A-375 cell death treated with DMSO(control) at a concentration of 25 uM. Format: functional.
Assay [3] concerns A-375. Kind of assay: Percentage inhibition of proliferation against alive human A-375 cells treated with DMSO (control) at a concentration of 40 uM. The assay is classed as functional.
For assay [4], the system named is A-375. The assay is described as follows: Effect on apoptotic human A-375 cell death treated with DMSO(control) at a concentration of 10 uM. Format: functional.
The subject of assay [5] is A-375. The assay is described as follows: Percentage of alive human A-375 cells relative to DMSO-treated control at a concentration of 10 uM.
In assay [6] the test system is A-375. Kind of assay: Effect on apoptotic human A-375 cell death treated with DMSO(control) at a concentration of 40 uM. The assay is classed as functional.
Assay [7] deals with A-375. The assay is described as follows: Percentage inhibition of proliferation against alive human A-375 cells treated with DMSO (control) at a concentration of 50 uM. The assay is classed as functional.
The subject of assay [8] is A-375. Kind of assay: Effect on necrotic human A-375 cell death treated with DMSO(control) at a concentration of 40 uM. The assay is classed as functional.
Assay [9] concerns A-375. The assay is described as follows: Effect on apoptotic human A-375 cell death treated with DMSO(control) at a concentration of 25 uM. Format: functional.
The subject of assay [10] is A-375. The assay is described as follows: Effect on alive human A-375 cell death treated with DMSO(control) at a concentration of 50 uM. Format: functional.
Assay [11] deals with A-375. Kind of assay: Effect on necrotic human A-375 cell death treated with DMSO(control) at a concentration of 25 uM. Format: functional.
Assay [12] concerns A-375. The assay is described as follows: Percentage of alive human A-375 cells relative to DMSO-treated control at a concentration of 25 uM.
Assay [13] has as its system A-375. The assay is described as follows: Effect on necrotic human A-375 cell death treated with DMSO(control) at a concentration of 10 uM. Format: functional.
The subject of assay [14] is A-375. The assay is described as follows: Effect on necrotic human A-375 cell death treated with DMSO(control) at a concentration of 50 uM. The assay is classed as functional.
The subject of assay [15] is A-375. Kind of assay: Effect on apoptotic human A-375 cell death treated with DMSO(control) at a concentration of 50 uM. Format: functional.
The subject of assay [16] is A-375. Kind of assay: Effect on alive human A-375 cell death treated with DMSO(control) at a concentration of 10 uM. Format: functional.
The subject of assay [17] is A-375. The assay is described as follows: Percentage of alive human A-375 cells relative to DMSO-treated control at a concentration of 15 uM.
The subject of assay [18] is A-375. Kind of assay: Percentage inhibition of proliferation against alive human A-375 cells treated with DMSO (control) at a concentration of 350 uM. The assay is classed as functional.

The values below come from ChEMBL document CHEMBL1141132, “6-[1-(2,6-difluorophenyl)ethyl]pyrimidinones antagonize cell proliferation and induce cell differentiation by inhibiting (a nontelomeric) endogenous reverse transcriptase” (2005).

`Cc1c(C(C)c2c(F)cccc2F)nc(SC2CCCC2)[nH]c1=O` (centres undefined): the Activity in the assay on A-375 [1] was 98.7%; with A-375 [2] it was 96.4%; with A-375 [4], 2.3%; in the assay with A-375 [6], 1%; in the assay on A-375 [8] it was 0.3%; in the assay with A-375 [9], 2.6%. For the same compound, the Activity is 80% with A-375 [10]; 1% in the assay on A-375 [11]; 1% in the assay with A-375 [13]; 7.2% in the assay on A-375 [14]; 12.8% with A-375 [15]; 96.7% with A-375 [16]. The same compound showed an inhibition at 40 µM with A-375 [3] of 65%. The compound also displayed an alive cells at 10 µM with A-375 [5] of 77%. Further, in the assay on A-375 [7], at 50 µM the inhibition was 14%. For the same compound, the alive cells at 25 µM with A-375 [12] came out at 72%.
Turning to `Cc1c(C(C)c2c(F)cccc2F)nc(N(C)C)[nH]c1=O` (centres undefined), the Activity in the assay on A-375 [1] is on record as 96%; in the assay with A-375 [2], 96.3%; in the assay on A-375 [4] it was 1.8%; with A-375 [6], 3.1%; in the assay with A-375 [8], 0.9%; with A-375 [9] it was 2.3%. Also, the Activity with A-375 [10] amounted to 89%; with A-375 [11], 1%; with A-375 [13] it was 0.8%; in the assay with A-375 [14], 2.6%; in the assay on A-375 [15] it was 8.4%; in the assay on A-375 [16], 97.4%. This compound registered an inhibition at 40 µM in the assay with A-375 [3] of 42%. For the same compound, in the assay on A-375 [5], the alive cells at 10 µM stood at 91%. Also, 50 µM produced 30% inhibition in the assay on A-375 [7]. For the same compound, the alive cells at 25 µM in the assay on A-375 [12] amounted to 86%.
For the compound `O=C1Nc2ccc(Cl)cc2[C@@](C#CC2CC2)(C(F)(F)F)O1` [EFAVIRENZ], in the assay with A-375 [17], the alive cells at 15 µM came out at 51%.
In turn, `Cc1ccnc2c1NC(=O)c1cccnc1N2C1CC1` [NEVIRAPINE] displayed an inhibition at 350 µM with A-375 [18] of 35%.

The term inhibition denotes the share of the control response that was lost under treatment. Read a low inhibition as a weak effect.
